Experimental findings from the Kinase Knowledgebase extract (Sharma et al. 2016) are described below.

Molecules are shown by their SMILES.

Chain of EGFR (human) (P00533 whole entry, looked up): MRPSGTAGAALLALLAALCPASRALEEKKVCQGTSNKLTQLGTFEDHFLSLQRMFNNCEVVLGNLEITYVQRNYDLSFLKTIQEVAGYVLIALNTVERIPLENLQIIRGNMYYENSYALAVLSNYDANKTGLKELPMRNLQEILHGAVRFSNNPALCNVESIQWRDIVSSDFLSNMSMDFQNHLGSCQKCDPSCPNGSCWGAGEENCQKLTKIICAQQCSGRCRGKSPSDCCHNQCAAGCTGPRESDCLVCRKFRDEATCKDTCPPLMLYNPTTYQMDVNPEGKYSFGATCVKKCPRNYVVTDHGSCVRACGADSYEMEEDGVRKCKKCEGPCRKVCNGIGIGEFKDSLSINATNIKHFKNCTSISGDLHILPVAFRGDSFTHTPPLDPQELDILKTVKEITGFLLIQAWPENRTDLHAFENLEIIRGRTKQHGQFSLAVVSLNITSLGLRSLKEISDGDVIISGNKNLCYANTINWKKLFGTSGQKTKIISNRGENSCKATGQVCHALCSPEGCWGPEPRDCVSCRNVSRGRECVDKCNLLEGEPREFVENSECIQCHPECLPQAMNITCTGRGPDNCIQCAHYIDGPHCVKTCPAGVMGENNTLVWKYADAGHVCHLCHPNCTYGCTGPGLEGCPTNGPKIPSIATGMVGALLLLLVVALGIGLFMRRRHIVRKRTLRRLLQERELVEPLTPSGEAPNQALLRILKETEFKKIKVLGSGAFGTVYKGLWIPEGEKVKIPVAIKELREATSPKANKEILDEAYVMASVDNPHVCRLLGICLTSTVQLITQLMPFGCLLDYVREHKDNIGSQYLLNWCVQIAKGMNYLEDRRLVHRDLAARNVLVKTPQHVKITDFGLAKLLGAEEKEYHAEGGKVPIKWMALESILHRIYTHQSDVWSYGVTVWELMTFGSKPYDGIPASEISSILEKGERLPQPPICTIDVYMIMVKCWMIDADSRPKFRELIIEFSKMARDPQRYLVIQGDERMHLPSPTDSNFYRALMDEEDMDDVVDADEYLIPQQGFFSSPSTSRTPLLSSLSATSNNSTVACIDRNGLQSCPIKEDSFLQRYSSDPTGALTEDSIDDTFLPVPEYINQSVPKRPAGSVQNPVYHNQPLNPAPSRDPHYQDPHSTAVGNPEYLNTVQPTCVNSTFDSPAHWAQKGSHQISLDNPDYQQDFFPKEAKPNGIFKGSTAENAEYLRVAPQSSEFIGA

This assay has as its target EGFR (human) (UniProt P00533).
One may read the IC50 as the concentration that inhibits the measured activity by half. Low readings indicate greater potency in that assay, high ones weaker potency in that assay. For the compound `COc1cc2ncnc(Nc3ccc(NC(=O)Nc4ccccc4)cc3)c2cc1OC`, the IC50 was above 10 µM.

As to `COc1cc2ncnc(Oc3ccc(NC(=O)Nc4ccc(F)c(Cl)c4)cc3)c2cc1OC`, the IC50 is above 10 µM.

Turning to `COc1cc2ncnc(Oc3ccc(NC(=O)Nc4ccc(F)cc4F)cc3)c2cc1OC`, the IC50 was above 10 µM.

Turning to `CCCCC(=O)Nc1ccc(Nc2ncnc3cc(OC)c(OC)cc23)cc1C`, the IC50 is above 10 µM.

Take `COc1cc2ncnc(Oc3ccc(NC(=O)Nc4ccc5ccccc5c4)cc3)c2cc1OC`: the IC50 is above 10 µM.

As for `COc1ccc(NC(=O)Nc2ccc(Oc3ncnc4cc(OC)c(OC)cc34)cc2)cc1`, the IC50 was above 10 µM.

With `COc1cc2ncnc(Oc3ccc(NC(=O)Nc4ccccc4)cc3)c2cc1OC`, the IC50 was above 10 µM.

With `CCOC(=O)Nc1ccc(Nc2ncnc3cc(OCCN(CC)CC)c(OC)cc23)cc1C`, the IC50 was above 10 µM.

Compound `COc1cc2ncnc(Oc3ccc(NC(=O)NC4CCCCC4)cc3)c2cc1OC` registered an IC50 above 10 µM.

Turning to `COc1cc2ncnc(Oc3ccc(NC(=O)Nc4ccc(Br)cc4)cc3)c2cc1OC`, the IC50 was above 10 µM.

Consider `COc1cc2ncnc(Nc3ccc(NC(=O)Nc4ccc(F)c(Cl)c4)cc3)c2cc1OC`, for which the IC50 was above 10 µM.

`CCOC(=O)Nc1ccc(Nc2ncnc3cc(OC)c(OCCN(CC)CC)cc23)cc1C` gave an IC50 above 10 µM.

With `CCOC(=O)Nc1ccc(Oc2ncnc3cc(OC)c(OC)cc23)cc1`, the IC50 is above 10 µM.

The compound `COc1cc2ncnc(Oc3ccc(F)c(Cl)c3)c2cc1OC` yielded an IC50 above 10 µM.

On to `CCOC(=O)Nc1ccc(Nc2ncnc3cc(OC)c(OC)cc23)cc1`, for which the IC50 was above 10 µM.

The compound `COC(=O)Nc1ccc(Oc2ncnc3cc(OC)c(OC)cc23)cc1` showed an IC50 above 10 µM.

For `COc1cc2ncnc(Oc3cccc(NC(=O)Nc4ccccc4)c3)c2cc1OC`, the IC50 is above 10 µM.

As for `COc1ccc(NC(=O)Nc2cccc(Oc3ncnc4cc(OC)c(OC)cc34)c2)cc1`, the IC50 is above 10 µM.

Turning to `CCCC(=O)Nc1ccc(Nc2ncnc3cc(OC)c(OC)cc23)cc1C`, the IC50 is above 10 µM.

In the case of `CCCCNC(=O)Nc1ccc(Oc2ncnc3cc(OC)c(OC)cc23)cc1`, the IC50 is above 10 µM.

Compound `CCCCOc1cc2c(Nc3ccc(NC(=O)OCC)c(C)c3)ncnc2cc1OCCN(CC)CC` gave an IC50 above 10 µM.

In turn, `CCOC(=O)Nc1ccc(Nc2ncnc3cc(OCCN(CC)CC)c(OC)cc23)cc1Cl` came in with an IC50 above 10 µM.
